{
  "source": "ChEMBL document CHEMBL1134446",
  "about": "“Polyamine analogue antidiarrheals: a structure-activity study” (J Med Chem, 2001)",
  "format_in_all_cases": "functional",
  "key": {"[1]": {"tested_on": "Rattus norvegicus", "experiment": "Weight loss of rat over the 6-h experimental period when a dose of 0 mg/kg (0 administered"}, "[2]": {"tested_on": "Rattus norvegicus", "experiment": "Stool output of rat over the 6-h collection period when a dose of 28.2 mg/kg (57.8 administered"}, "[3]": {"tested_on": "Rattus norvegicus", "experiment": "Stool output of rat over the 6-h collection period when a dose of 1.1 mg/kg (2.3 administered"}, "[4]": {"tested_on": "Rattus norvegicus", "experiment": "Stool output of rat over the 6-h collection period when a dose of 5.7 mg/kg (11.6 administered"}, "[5]": {"tested_on": "Rattus norvegicus", "experiment": "Weight loss of rat over the 6-h experimental period when a dose of 5.7 mg/kg (11.6 administered"}, "[6]": {"tested_on": "Rattus norvegicus", "experiment": "Weight loss of rat over the 6-h experimental period when a dose of 1.1 mg/kg (2.3 administered"}, "[7]": {"tested_on": "Rattus norvegicus", "experiment": "Weight loss of rat over the 6-h experimental period when a dose of 28.2 mg/kg (57.8 administered"}, "[8]": {"tested_on": "Rattus norvegicus", "experiment": "Stool output of rat over the 6-h collection period when a dose of 0 mg/kg (0 administered"}, "[9]": {"tested_on": "Rattus norvegicus", "experiment": "Percent reduction was determined by using the ratio of mean of treated animal to that of control animal at a dose of 28.2 mg/kg"}, "[10]": {"tested_on": "Rattus norvegicus", "experiment": "Percent reduction was determined by using the ratio of mean of treated animal to that of control animal at a dose of 0.125 mg/kg"}, "[11]": {"tested_on": "Rattus norvegicus", "experiment": "Weight loss of rat over the 6-h experimental period when a dose of 0.0625 mg/kg (0.145 administered"}, "[12]": {"tested_on": "Rattus norvegicus", "experiment": "Stool output of rat over the 6-h collection period when a dose of 0.99 mg/kg (2.3 administered"}, "[13]": {"tested_on": "Rattus norvegicus", "experiment": "Percent reduction was determined by using the ratio of mean of treated animal to that of control animal at a dose of 0.0156 mg/kg"}, "[14]": {"tested_on": "Rattus norvegicus", "experiment": "Weight loss of rat over the 6-h experimental period when a dose of 0.5 mg/kg (1.16 administered"}, "[15]": {"tested_on": "Rattus norvegicus", "experiment": "Stool output of rat over the 6-h collection period when a dose of 0.0078 mg/kg (0.0181 administered"}, "[16]": {"tested_on": "Rattus norvegicus", "experiment": "Percent reduction was determined by using the ratio of mean of treated animal to that of control animal at a dose of 24.87 mg/kg"}, "[17]": {"tested_on": "Rattus norvegicus", "experiment": "Stool output of rat over the 6-h collection period when a dose of 0.5 mg/kg (1.16 administered"}, "[18]": {"tested_on": "Rattus norvegicus", "experiment": "Stool output of rat over the 6-h collection period when a dose of 0.25 mg/kg (0.58 administered"}, "[19]": {"tested_on": "Rattus norvegicus", "experiment": "Percent reduction was determined by using the ratio of mean of treated animal to that of control animal at a dose of 0.03125 mg/kg"}, "[20]": {"tested_on": "Rattus norvegicus", "experiment": "Stool output of rat over the 6-h collection period when a dose of 0.03125 mg/kg (0.0726 administered"}, "[21]": {"tested_on": "Rattus norvegicus", "experiment": "Weight loss of rat over the 6-h experimental period when a dose of 0.0078 mg/kg (0.0181 administered"}, "[22]": {"tested_on": "Rattus norvegicus", "experiment": "Percent reduction was determined by using the ratio of mean of treated animal to that of control animal at a dose of 0.5 mg/kg"}, "[23]": {"tested_on": "Rattus norvegicus", "experiment": "Weight loss of rat over the 6-h experimental period when a dose of 4.97 mg/kg (11.6 administered"}, "[24]": {"tested_on": "Rattus norvegicus", "experiment": "Percent reduction was determined by using the ratio of mean of treated animal to that of control animal at a dose of 0.99 mg/kg"}, "[25]": {"tested_on": "Rattus norvegicus", "experiment": "Weight loss of rat over the 6-h experimental period when a dose of 0.99 mg/kg (2.3 administered"}, "[26]": {"tested_on": "Rattus norvegicus", "experiment": "Weight loss of rat over the 6-h experimental period when a dose of 24.87 mg/kg (57.8 administered"}, "[27]": {"tested_on": "Rattus norvegicus", "experiment": "Weight loss of rat over the 6-h experimental period when a dose of 0.0156 mg/kg (0.036 administered"}, "[28]": {"tested_on": "Rattus norvegicus", "experiment": "Stool output of rat over the 6-h collection period when a dose of 0.0625 mg/kg (0.145 administered"}, "[29]": {"tested_on": "Rattus norvegicus", "experiment": "Stool output of rat over the 6-h collection period when a dose of 24.87 mg/kg (57.8 administered"}, "[30]": {"tested_on": "Rattus norvegicus", "experiment": "Percent reduction was determined by using the ratio of mean of treated animal to that of control animal at a dose of 0.25 mg/kg"}, "[31]": {"tested_on": "Rattus norvegicus", "experiment": "Weight loss of rat over the 6-h experimental period when a dose of 0.03125 mg/kg (0.0726 administered"}, "[32]": {"tested_on": "Rattus norvegicus", "experiment": "Stool output of rat over the 6-h collection period when a dose of 0.0156 mg/kg (0.036 administered"}, "[33]": {"tested_on": "Rattus norvegicus", "experiment": "Weight loss of rat over the 6-h experimental period when a dose of 0.125 mg/kg (0.29 administered"}, "[34]": {"tested_on": "Rattus norvegicus", "experiment": "Percent reduction was determined by using the ratio of mean of treated animal to that of control animal at a dose of 0.0625 mg/kg"}, "[35]": {"tested_on": "Rattus norvegicus", "experiment": "Stool output of rat over the 6-h collection period when a dose of 0.125 mg/kg (0.29 administered"}, "[36]": {"tested_on": "Rattus norvegicus", "experiment": "Weight loss of rat over the 6-h experimental period when a dose of 0.25 mg/kg (0.58 administered"}, "[37]": {"tested_on": "Rattus norvegicus", "experiment": "Stool output of rat over the 6-h collection period when a dose of 4.97 mg/kg (11.6 uMl) was administered"}, "[38]": {"tested_on": "Rattus norvegicus", "experiment": "Percent reduction was determined by using the ratio of mean of treated animal to that of control animal at a dose of 0.0078 mg/kg"}, "[39]": {"tested_on": "Rattus norvegicus", "experiment": "Percent reduction was determined by using the ratio of mean of treated animal to that of control animal at a dose of 4.97 mg/kg"}},
  "note": "Several values for one entry are separate records, joined by “and”; a condition that tells them apart may be missing. Identical values can stand only once.",
  "data": [
    {"smiles": "CC(C)CCNCCCNCCCCNCCCNCCC(C)C", "values": [
      {"measurement": "Weight loss", "setting": "[1]", "value": 14.6, "unit": "g"},
      {"measurement": "Stool output", "setting": "[2]", "value": "<0 g (350g of rat weight)-1"},
      {"measurement": "Stool output", "setting": "[3]", "value": ">4.9 g (350g of rat weight)-1"},
      {"measurement": "Stool output", "setting": "[4]", "value": ">7.8 g (350g of rat weight)-1"},
      {"measurement": "Weight loss", "setting": "[5]", "value": ">18.3", "unit": "g"},
      {"measurement": "Weight loss", "setting": "[6]", "value": ">14.2", "unit": "g"},
      {"measurement": "Weight loss", "setting": "[7]", "value": "<1.6", "unit": "g"},
      {"measurement": "Stool output", "setting": "[8]", "value": "4.6 g (350g of rat weight)-1"},
      {"measurement": "Reduction", "setting": "[9]", "value": "89% and 100%"}
    ]},
    {"smiles": "CCNCCCNC1CCC(NCCCNCC)CC1", "note": "(stereo unspecified)", "values": [
      {"measurement": "Reduction", "setting": "[10]", "value": "65% and 100%"},
      {"measurement": "Weight loss", "setting": "[1]", "value": 11.6, "unit": "g"},
      {"measurement": "Weight loss", "setting": "[11]", "value": "<3.7", "unit": "g"},
      {"measurement": "Stool output", "setting": "[12]", "value": "<0 g (350g of rat weight)-1"},
      {"measurement": "Reduction", "setting": "[13]", "value": "73% and 92%"},
      {"measurement": "Weight loss", "setting": "[14]", "value": "<2.9", "unit": "g"},
      {"measurement": "Stool output", "setting": "[15]", "value": ">3.6 g (350g of rat weight)-1"},
      {"measurement": "Reduction", "setting": "[16]", "value": "93% and 100%"},
      {"measurement": "Stool output", "setting": "[17]", "value": "<0 g (350g of rat weight)-1"},
      {"measurement": "Stool output", "setting": "[18]", "value": "<0 g (350g of rat weight)-1"},
      {"measurement": "Reduction", "setting": "[19]", "value": "64% and 100%"},
      {"measurement": "Stool output", "setting": "[20]", "value": "<0 g (350g of rat weight)-1"},
      {"measurement": "Weight loss", "setting": "[21]", "value": "<8.8", "unit": "g"},
      {"measurement": "Reduction", "setting": "[22]", "value": "75% and 100%"},
      {"measurement": "Weight loss", "setting": "[23]", "value": "<1.6", "unit": "g"},
      {"measurement": "Reduction", "setting": "[24]", "value": "77% and 100%"},
      {"measurement": "Weight loss", "setting": "[25]", "value": "<2.7", "unit": "g"},
      {"measurement": "Weight loss", "setting": "[26]", "value": "<0.8", "unit": "g"},
      {"measurement": "Weight loss", "setting": "[27]", "value": "<3.1", "unit": "g"},
      {"measurement": "Stool output", "setting": "[28]", "value": "<0 g (350g of rat weight)-1"},
      {"measurement": "Stool output", "setting": "[29]", "value": "<0 g (350g of rat weight)-1"},
      {"measurement": "Reduction", "setting": "[30]", "value": "77% and 100%"},
      {"measurement": "Weight loss", "setting": "[31]", "value": "<4.2", "unit": "g"},
      {"measurement": "Stool output", "setting": "[32]", "value": "<0.4 g (350g of rat weight)-1"},
      {"measurement": "Weight loss", "setting": "[33]", "value": "<4.1", "unit": "g"},
      {"measurement": "Stool output", "setting": "[8]", "value": "4.9 g (350g of rat weight)-1"},
      {"measurement": "Reduction", "setting": "[34]", "value": "68% and 100%"},
      {"measurement": "Stool output", "setting": "[35]", "value": "<0 g (350g of rat weight)-1"},
      {"measurement": "Weight loss", "setting": "[36]", "value": "<2.7", "unit": "g"},
      {"measurement": "Stool output", "setting": "[37]", "value": "<0 g (350g of rat weight)-1"},
      {"measurement": "Reduction", "setting": "[38]", "value": 24, "unit": "%"},
      {"measurement": "Reduction", "setting": "[39]", "value": "86% and 100%"}
    ]}
  ]
}
